Target: EGF receptor tyrosine kinase (EGFR) (Homo sapiens, UniProt P00533)
Experiment: AlphaScreen P-Tyr-100 kinase assay with poly[Glu:Tyr] ([…]) substrate
Assay type: biochemical

Chain of EGF receptor tyrosine kinase (EGFR) (P00533 669-1210 limits assumed): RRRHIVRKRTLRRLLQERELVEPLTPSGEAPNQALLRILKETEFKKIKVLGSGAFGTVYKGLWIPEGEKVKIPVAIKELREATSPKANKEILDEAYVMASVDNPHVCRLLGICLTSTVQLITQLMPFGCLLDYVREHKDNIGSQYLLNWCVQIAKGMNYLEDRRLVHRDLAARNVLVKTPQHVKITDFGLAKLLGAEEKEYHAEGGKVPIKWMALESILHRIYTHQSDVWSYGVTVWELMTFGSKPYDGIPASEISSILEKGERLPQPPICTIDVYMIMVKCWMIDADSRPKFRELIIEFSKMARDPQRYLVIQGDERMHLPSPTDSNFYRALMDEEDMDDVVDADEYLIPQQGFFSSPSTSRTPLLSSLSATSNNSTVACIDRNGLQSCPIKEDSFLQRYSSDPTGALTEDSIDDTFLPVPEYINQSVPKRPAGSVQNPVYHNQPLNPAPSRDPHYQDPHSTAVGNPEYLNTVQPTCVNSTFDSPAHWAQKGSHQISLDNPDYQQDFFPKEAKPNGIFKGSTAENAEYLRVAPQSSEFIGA

| SMILES | IC50 [µM] |
| --- | --- |
| O=C(O)Cc1ccc(O)c(O)c1 [3,4-dihydroxyphenyl acetic acid] | 16.7 |
| O=C1C(CO)=C[C@@H](O)[C@H]2O[C@@H]12 [(+)-epoxydon] | 3.84 |

From article PMC3673896, “3,4-dihydroxyphenyl acetic acid and (+)-epoxydon isolated from marine algae-derived microorganisms induce down regulation of epidermal growth factor activated mitogenic signaling cascade in Hela cells” (Cancer Cell International, 2013)
